Experimental data from patent US12497637B1, “Stabilization of tryptamines by denaturing enzymes, optimizing ionization states, and controlling confounding variables” (Convergent Health Sciences LLC, priority 2025, dated 2025).

How the values were obtained:
laccase enzyme = assay: Colorimetric assay with a syringaldazine substrate for residual laccase enzyme activity; format: biochemical, Psilocybe cubensis; settings: relative to the water control
Description: The denaturation of relevant laccase enzymes may be assessed, for example, by performing a colorimetric assay with a laccase enzyme substrate such as syringaldazine or 2,2′-azino-bis(3-ethylbenzothiazoline-6-sulfonate) (ABTS). Syringaldazine comprises an aromatic structure with pendant hydroxyl groups, which is chemically similar to the indole of a hydroxytryptamine, and ABTS comprises a benzothiazoline, which is chemically similar to the indole of tryptamines generally. Colorimetric assays performed with a syringaldazine or ABTS substrate therefore provide suitable methods to assess laccase activity that are relevant to this disclosure.
(§1) 20 milliliters of 6 molar guanidinium chloride in distilled, deionized water and buffered to a pH of 6.0 with 50 millimolar phosphate buffer is added to each of three opaque 50-milliliter polypropylene centrifuge tubes. 20 milliliters of 8 molar urea in distilled, deionized water and buffered to a pH of 6.0 with 50 millimolar phosphate buffer is added to each of three opaque 50-milliliter polypropylene centrifuge tubes. 20 milliliters of 4 molar ammonium sulfate in distilled, deionized water and buffered to a pH of 6.0 with 50 millimolar MES buffer is added to each of three opaque 50-milliliter polypropylene centrifuge tubes. 20 milliliters of 2 percent sodium dodecyl sulfate (w/v) in distilled, deionized water and buffered to a pH of 6.0 with 50 millimolar phosphate buffer is added to each of three opaque 50-milliliter polypropylene centrifuge tubes. 20 milliliters of 1 percent Triton X-100 (v/v) in distilled, deionized water and buffered to a pH of 6.0 with 50 millimolar phosphate buffer is added to each of three opaque 50-milliliter polypropylene centrifuge tubes. 20 milliliters of 2 percent octyl glucoside (w/v) in distilled, deionized water and buffered to a pH of 6.0 with 50 millimolar phosphate buffer is added to each of three opaque 50-milliliter polypropylene centrifuge tubes. 20 milliliters of distilled, deionized water is buffered to a pH of 6.0 with 50 millimolar phosphate buffer and added to each of three opaque 50-milliliter polypropylene centrifuge tubes. Each of the centrifuge tubes is placed on ice.
(§2) The stipes of three freshly-harvested Psilocybe cubensis fruiting bodies are each cut into seven sections of approximately 1 gram each, weighed, and immediately placed into one of the polypropylene tubes such that a section of each stipe is placed in each of the guanidinium, urea, ammonium sulfate, sodium dodecyl sulfate, Triton X-100, and octyl glucoside solutions as well as the water control. Each of the samples is homogenized and then sonicated within the polypropylene tubes. The polypropylene tubes are then loaded onto an orbital shaker in a cold room at 4 degrees Celsius and mixed at 450 revolutions per minute for four hours. After mixing, the samples are placed on ice.
(§3) The samples are centrifuged, and the supernatants are analyzed by HPLC as described in Example 1. The molecular weights of the analytes are determined by electrospray ionization mass spectroscopy (ESI-MS) operating in positive ion mode. The supernatants are also used for a colorimetric assay with a para-nitrophenyl phosphate substrate to identify residual phosphatase enzyme activity and for a colorimetric assay with a syringaldazine substrate to identify any residual laccase enzyme activity.

phosphatase enzyme = assay: Colorimetric assay with a para-nitrophenyl phosphate substrate for residual phosphatase enzyme activity; format: biochemical, Psilocybe cubensis; settings: relative to the water control
Description: The denaturation of relevant phosphatase enzymes may be assessed, for example, by performing a colorimetric assay with a para-nitrophenyl phosphate substrate. Para-nitrophenyl phosphate comprises a phosphorylated aromatic, which is chemically similar to the phosphorylated indole of a phosphoryloxytryptamine. Colorimetric assays performed with a para-nitrophenyl phosphate substrate therefore provide suitable methods to assess […] that are relevant to this disclosure.
as §1, §2, §3

[1] = Spontaneous dephosphorylation of phosphoryloxytryptamines in 100 millimolar phosphate buffers, 85 degrees Celsius, one hour, HPLC at 220 nanometers
[2] = cited from earlier work
[3] = cited from earlier work; remark: listed apart in the source
[4] = pH of 3.0 relative to pH of 2.0
[5] = pH of 6.0 relative to pH of 7.0
[6] = pH of 2.0 relative to pH of 3.0
[7] = pH of 7.0 relative to pH of 6.0

CCCCCCCCO[C@@H]1O[C@H](CO)[C@@H](O)[C@H](O)[C@H]1O [octyl glucoside, octyl β-D-glucopyranoside]
laccase enzyme activity in the colorimetric assay (laccase enzyme): significantly less laccase enzyme activity
phosphatase enzyme activity in the colorimetric assay (phosphatase enzyme): significantly less phosphatase enzyme activity

CNCCc1c[nH]c2cccc(OP(=O)(O)O)c12 [baeocystin, [2-(4-phosphonooxy-1H-indol-3-yl)ethyl]-methylazanium]
absorbance detected for the phosphoryloxytryptamine [1, 4]: Greater absorbance
absorbance detected for the phosphoryloxytryptamine [1, 5]: Greater absorbance

C[N+](C)(C)CCc1c[nH]c2cccc(OP(=O)(O)O)c12 [aeruginascin, [2-(4-phosphonooxy-1H-indol-3-yl)ethyl]-trimethylazanium]
absorbance detected for the phosphoryloxytryptamine [1, 4]: Greater absorbance
absorbance detected for the phosphoryloxytryptamine [1, 5]: Greater absorbance

CN(C)CCc1c[nH]c2cccc(OP(=O)(O)O)c12 [psilocybin]
pKa of the azanium of psilocybin ([2]; conjugate acid of the amino): about 10.4
pKa of the dihydrogen phosphate of psilocybin (lowest pKa) ([2]; first phosphate pKa): about 1.3

CN(C)CCc1c[nH]c2cccc(O)c12 [psilocin, 3-[2-(dimethylamino)ethyl]-1H-indol-4-ol]
absorbance detected for the hydroxytryptamine (dephosphorylation product) [1, 6]: greater absorbance
absorbance detected for the hydroxytryptamine (dephosphorylation product) [1, 7]: greater absorbance

OCCc1c[nH]c2ccccc12 [tryptophol]
solubility in water [3]: insoluble in water

Chitin
solubility in water [3]: insoluble in water

NCCc1c[nH]c2cccc(O)c12 [4-HT, 3-(2-aminoethyl)-1H-indol-4-ol]
absorbance detected for the hydroxytryptamine (dephosphorylation product) [1, 6]: greater absorbance
absorbance detected for the hydroxytryptamine (dephosphorylation product) [1, 7]: greater absorbance

Cl.N=C(N)N [guanidinium, guanidinium chloride]
laccase enzyme activity in the colorimetric assay (laccase enzyme): significantly less laccase enzyme activity
phosphatase enzyme activity in the colorimetric assay (phosphatase enzyme): significantly less phosphatase enzyme activity

NC(N)=O [urea]
laccase enzyme activity in the colorimetric assay (laccase enzyme): significantly less laccase enzyme activity
phosphatase enzyme activity in the colorimetric assay (phosphatase enzyme): significantly less phosphatase enzyme activity

N.N.O=S(=O)(O)O [ammonium sulfate]
laccase enzyme activity in the colorimetric assay (laccase enzyme): significantly less laccase enzyme activity
phosphatase enzyme activity in the colorimetric assay (phosphatase enzyme): significantly less phosphatase enzyme activity

CCCCCCCCCCCCOS(=O)(=O)[O-].[Na+] [sodium dodecyl sulfate]
laccase enzyme activity in the colorimetric assay (laccase enzyme): significantly less laccase enzyme activity
phosphatase enzyme activity in the colorimetric assay (phosphatase enzyme): significantly less phosphatase enzyme activity

CNCCc1c[nH]c2cccc(O)c12 [norpsilocin, 3-[2-(methylamino)ethyl]-1H-indol-4-ol]
absorbance detected for the hydroxytryptamine (dephosphorylation product) [1, 6]: greater absorbance
absorbance detected for the hydroxytryptamine (dephosphorylation product) [1, 7]: greater absorbance

O=C(O)Cc1c[nH]c2ccccc12 [Indole-3-acetic acid, indole-3-acetic acid]
solubility in water [3]: insoluble in water

polyethylene glycol 4-(2,4,4-trimethylpent-2-yl)phenyl ether [Triton X-100]
laccase enzyme activity in the colorimetric assay (laccase enzyme): significantly less laccase enzyme activity
phosphatase enzyme activity in the colorimetric assay (phosphatase enzyme): significantly less phosphatase enzyme activity

C[N+](C)(C)CCc1c[nH]c2cccc(O)c12 [4-hydroxy-TMT, [2-(4-hydroxy-1H-indol-3-yl)ethyl]-trimethylazanium]
absorbance detected for the hydroxytryptamine (dephosphorylation product) [1, 6]: greater absorbance
absorbance detected for the hydroxytryptamine (dephosphorylation product) [1, 7]: greater absorbance

NCCc1c[nH]c2cccc(OP(=O)(O)O)c12 [norbaeocystin, 2-(4-phosphonooxy-1H-indol-3-yl)ethylazanium]
absorbance detected for the phosphoryloxytryptamine [1, 4]: Greater absorbance
absorbance detected for the phosphoryloxytryptamine [1, 5]: Greater absorbance
